The values below come from patent publication US11149037B2, “Pyrazole MAGL inhibitors” (H. Lundbeck A/S, priority 2017, dated 2021).

Type in all cases: biochemical
Test [1] has as its target FAAH (Homo sapiens (Human), UniProt O00519). Nature of the test: In vitro competitive activity-based protein profiling, human proteomes (prefrontal cortex or PC3 cell membrane fractions). Conditions: human proteome; for inhibition at 1 µM: read-out: FAAH % inh. 1 μM (human). As for the experimental part: (§1) In Vitro Competitive Activity-Based Protein Profiling.
(§2) Proteomes (mouse brain membrane fraction or cell lysates for mouse assays; human prefrontal cortex or PC3 cell membrane fractions for human assays) (50 μL, 1.0 or 2.0 mg/mL total protein concentration) were preincubated with varying concentrations of inhibitors at 37° C. After 30 min, FP-Rh or JW912 or HT-01 (1.0 μL, 50 μM in DMSO) was added and the mixture was incubated for another 30 min at 37° C. Reactions were quenched with SDS loading buffer (15 μL-4×) and run on SDS-PAGE. Following gel imaging, serine hydrolase activity was determined by measuring fluorescent intensity of gel bands corresponding to MAGL and FAAH using ImageJ 1.43u software.

The target of test [2] is MAGL (Homo sapiens (Human), UniProt Q99685). The description is as above. Particulars: human proteome; for inhibition at 10 µM: read-out: MAGL % inh. (human) @ 10 μM; for inhibition at 1 µM: read-out: MAGL % inh. 1 μM (human). As for the experimental part:
as §1, §2

The target of test [3] is FAAH (Mus musculus (Mouse), UniProt O08914). Nature of the test: In vitro competitive activity-based protein profiling, mouse proteomes (brain membrane fraction or cell lysates). Particulars: mouse proteome, read-out: FAAH % inh. 1 μM (mouse). The method, then: as §1, §2
For test [4], the target named is MAGL (Mus musculus (Mouse), UniProt O35678). The description is as above. Particulars: mouse proteome, read-out: MAGL % inh. 1 μM (mouse). As for the experimental part: as §1, §2
MAGL (Mus musculus (Mouse), UniProt O35678), sequence (O35678 whole entry): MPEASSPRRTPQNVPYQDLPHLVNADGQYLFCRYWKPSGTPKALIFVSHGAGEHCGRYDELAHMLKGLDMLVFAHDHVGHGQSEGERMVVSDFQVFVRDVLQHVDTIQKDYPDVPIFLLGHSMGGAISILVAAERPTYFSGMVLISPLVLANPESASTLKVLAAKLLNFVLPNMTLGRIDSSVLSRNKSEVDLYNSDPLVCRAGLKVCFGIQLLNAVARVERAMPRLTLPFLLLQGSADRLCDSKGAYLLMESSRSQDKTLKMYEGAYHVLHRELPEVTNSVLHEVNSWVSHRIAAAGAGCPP

FAAH (Homo sapiens (Human), UniProt O00519), sequence (O00519 whole entry): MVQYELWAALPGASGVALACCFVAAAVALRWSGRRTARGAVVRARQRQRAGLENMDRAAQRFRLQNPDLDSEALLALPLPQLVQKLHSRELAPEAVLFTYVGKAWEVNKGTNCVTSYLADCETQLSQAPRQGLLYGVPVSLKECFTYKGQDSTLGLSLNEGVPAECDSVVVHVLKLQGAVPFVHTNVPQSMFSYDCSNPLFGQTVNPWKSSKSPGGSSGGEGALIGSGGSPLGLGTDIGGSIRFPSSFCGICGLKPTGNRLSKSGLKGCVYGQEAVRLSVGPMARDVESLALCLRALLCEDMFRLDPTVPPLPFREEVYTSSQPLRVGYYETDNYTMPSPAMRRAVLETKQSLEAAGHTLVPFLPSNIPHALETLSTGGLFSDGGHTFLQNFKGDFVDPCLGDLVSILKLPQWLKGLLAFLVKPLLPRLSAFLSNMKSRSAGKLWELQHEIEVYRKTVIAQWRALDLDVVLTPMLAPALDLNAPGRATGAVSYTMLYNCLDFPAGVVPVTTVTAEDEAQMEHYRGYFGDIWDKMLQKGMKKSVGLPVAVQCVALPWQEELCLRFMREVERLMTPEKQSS
FAAH (Mus musculus (Mouse), UniProt O08914), sequence (O08914 whole entry): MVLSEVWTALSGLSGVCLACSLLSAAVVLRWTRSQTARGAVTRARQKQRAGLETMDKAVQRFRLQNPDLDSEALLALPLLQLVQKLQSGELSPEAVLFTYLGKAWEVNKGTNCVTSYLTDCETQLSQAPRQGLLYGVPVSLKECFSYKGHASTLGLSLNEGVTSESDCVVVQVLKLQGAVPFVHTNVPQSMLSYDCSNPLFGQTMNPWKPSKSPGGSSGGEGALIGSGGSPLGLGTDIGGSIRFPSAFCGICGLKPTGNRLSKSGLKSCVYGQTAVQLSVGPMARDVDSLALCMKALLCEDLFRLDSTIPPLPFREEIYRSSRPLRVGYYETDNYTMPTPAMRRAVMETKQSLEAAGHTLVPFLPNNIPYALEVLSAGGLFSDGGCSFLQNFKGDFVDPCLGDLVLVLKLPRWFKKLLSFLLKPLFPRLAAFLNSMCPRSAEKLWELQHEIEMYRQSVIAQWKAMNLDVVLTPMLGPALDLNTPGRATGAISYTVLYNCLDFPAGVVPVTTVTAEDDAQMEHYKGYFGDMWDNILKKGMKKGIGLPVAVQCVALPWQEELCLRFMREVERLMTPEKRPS
MAGL (Homo sapiens (Human), UniProt Q99685), sequence (Q99685 whole entry): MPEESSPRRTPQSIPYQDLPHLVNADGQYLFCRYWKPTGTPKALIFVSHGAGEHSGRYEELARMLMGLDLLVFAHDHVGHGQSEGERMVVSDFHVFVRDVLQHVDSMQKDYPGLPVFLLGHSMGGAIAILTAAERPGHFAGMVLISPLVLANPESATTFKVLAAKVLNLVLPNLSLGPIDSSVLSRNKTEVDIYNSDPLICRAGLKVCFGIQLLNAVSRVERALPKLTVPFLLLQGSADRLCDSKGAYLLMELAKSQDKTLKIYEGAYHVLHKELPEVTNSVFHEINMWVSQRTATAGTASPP

As for `CS(=O)(=O)Nc1ccn(C(=O)N2CCC3(CCCN3Cc3ccc(C(F)(F)F)cc3NCCCC(=O)O)CC2)n1` [Example 1, 4-((2-((8-(3-(methylsulfonamido)-1H-pyrazole-1-carbonyl)-1,8-diazaspiro[4.5]decan-1-yl)methyl)-5-(trifluoromethyl)phenyl)amino)butanoic acid], the inhibition at 1 µM on FAAH [1], at FAAH [3] and on MAGL [4] was 0 to 25% throughout. Moreover, on MAGL [2], the inhibition at 10 µM was over 75%.

With `CN(Cc1ccc(C(F)(F)F)c(N2CCC(F)CC2)c1)C1(C)CCN(C(=O)n2ccc(NS(C)(=O)=O)n2)CC1` [Example 2, N-(1-(4-((3-(4-fluoropiperidin-1-yl)-4-(trifluoromethyl)benzyl)(methyl)amino)-4-methylpiperidine-1-carbonyl)-1H-pyrazol-3-yl)methanesulfonamide], the inhibition at 1 µM at FAAH [1] was 0 to 25%; at MAGL [2], over 75%; on FAAH [3] it was 0 to 25%; on MAGL [4], over 75%.

For the molecule `CC(=O)Nc1ccn(C(=O)N2CCN(Cc3ccc(Cl)cc3OCC(=O)O)CC2)n1` [Example 3, 2-(2-((4-(3-acetamido-1H-pyrazole-1-carbonyl)piperazin-1-yl)methyl)-5-chlorophenoxy)acetic acid], the inhibition at 1 µM on FAAH [1] was 0 to 25%; on MAGL [2] it was over 75%; at FAAH [3], 0 to 25%; at MAGL [4], over 75%.

For `CS(=O)(=O)Nc1ccn(C(=O)N2CCC(Oc3ccc(C(F)(F)F)c(-c4nnco4)c3)CC2)n1` [Example 5, N-(1-(4-(3-(1,3,4-Oxadiazol-2-yl)-4-(trifluoromethyl)phenoxy)piperidine-1-carbonyl)-1H-pyrazol-3-yl)methanesulfonamide], the inhibition at 1 µM is 0 to 25% at FAAH [1], over 75% at MAGL [2], 0 to 25% on FAAH [3] and over 75% on MAGL [4].

In the case of `CS(=O)(=O)Nc1ccn(C(=O)N2CCC(Oc3ccc(Cl)c(OC4CCCC4)c3)CC2)n1` [Example 6, N-(1-(4-(4-chloro-3-(cyclopentyloxy)phenoxy)piperidine-1-carbonyl)-1H-pyrazol-3-yl)methanesulfonamide], the inhibition at 1 µM on FAAH [1] was 0 to 25%; at MAGL [2] it was over 75%; at FAAH [3] it was 0 to 25%; on MAGL [4], over 75%.

Take `CS(=O)(=O)Nc1ccn(C(=O)N2CCC(Oc3cccc(C(F)(F)F)c3-c3nnco3)CC2)n1` [Example 7, N-(1-(4-(2-(1,3,4-oxadiazol-2-yl)-3-(trifluoromethyl)phenoxy)piperidine-1-carbonyl)-1H-pyrazol-3-yl)methanesulfonamide]: the inhibition at 1 µM on FAAH [1] was 0 to 25%; at MAGL [2], over 75%; at FAAH [3] it was 0 to 25%; at MAGL [4], over 75%.

As to `CS(=O)(=O)Nc1ccn(C(=O)N2CCN(Cc3ccc(Cl)c(N4CC5(CCOCC5)C4)c3)CC2)n1` [Example 8, N-(1-(4-(4-chloro-3-(7-oxa-2-azaspiro[3.5]nonan-2-yl)benzyl)piperazine-1-carbonyl)-1H-pyrazol-3-yl)methanesulfonamide], the inhibition at 1 µM on FAAH [1] was 0 to 25%; on MAGL [2], over 75%; at FAAH [3] it was 0 to 25%; at MAGL [4], over 75%.

With `CS(=O)(=O)Nc1ccn(C(=O)N2CCN(Cc3ccc(Cl)c(N4CC5CN(C(N)=O)CC5C4)c3)CC2)n1` (stereo not drawn) [Example 9, 5-(2-Chloro-5-((4-(3-(methylsulfonamido)-1H-pyrazole-1-carbonyl)piperazin-1-yl)methyl)phenyl)hexahydropyrrolo[3,4-c]pyrrole-2(1H)-carboxamide], the inhibition at 1 µM is 0 to 25% on FAAH [1], over 75% at MAGL [2], 0 to 25% on FAAH [3] and over 75% on MAGL [4].

For `CS(=O)(=O)Nc1ccn(C(=O)N2CCN(Cc3ccc(C(N)=O)c(C(F)(F)F)c3)CC2)n1` [Example 10, 4-((4-(3-(methylsulfonamido)-1H-pyrazole-1-carbonyl)piperazin-1-yl)methyl)-2-(trifluoromethyl)benzamide], the inhibition at 1 µM on FAAH [1], on FAAH [3] and on MAGL [4] was 0 to 25% throughout. The inhibition at 10 µM at MAGL [2] was 50 to 75%.

As for `CC(=O)Nc1ccn(C(=O)N2CCC3(CCCN3Cc3cc4cc(Cl)cc(Cl)c4[nH]3)CC2)n1` [Example 13, N-(1-(1-((5,7-dichloro-1H-indol-2-yl)methyl)-1,8-diazaspiro[4.5]decane-8-carbonyl)-1H-pyrazol-3-yl)acetamide], the results for the IC50 on FAAH [1] and at MAGL [2] were 1 to 10 µM and under 0.1 µM, respectively. In addition, the inhibition at 1 µM was 25 to 50% at FAAH [3] and over 75% at MAGL [4].

Turning to `CS(=O)(=O)Nc1ccn(C(=O)N2CCC(Oc3ccc(C(F)(F)F)cc3-c3nccs3)CC2)n1` [Example 15, N-(1-(4-(2-(thiazol-2-yl)-4-(trifluoromethyl)phenoxy)piperidine-1-carbonyl)-1H-pyrazol-3-yl)methanesulfonamide], the inhibition at 1 µM was 0 to 25% on FAAH [1], over 75% at MAGL [2], 25 to 50% at FAAH [3] and over 75% at MAGL [4].

On to `CC(=O)Nc1ccn(C(=O)N2CC3CN(Cc4cc(Cl)cc(C(C)(C)O)c4)CC3C2)n1` (stereo not drawn) [Example 16, N-(1-(5-(3-chloro-5-(2-hydroxypropan-2-yl)benzyl)octahydropyrrolo[3,4-c]pyrrole-2-carbonyl)-1H-pyrazol-3-yl)acetamide], for which the inhibition at 1 µM on FAAH [1] is 25 to 50%; on MAGL [2] it was over 75%; at FAAH [3] it was 25 to 50%; at MAGL [4], over 75%.

Consider `CC(=O)Nc1ccn(C(=O)N2CCN(Cc3cc(Cl)cc(Oc4ccc(Cl)cc4)c3)CC2)n1` [Example 17, N-(1-(4-(3-chloro-5-(4-chlorophenoxy)benzyl)piperazine-1-carbonyl)-1H-pyrazol-3-yl)acetamide], for which the inhibition at 1 µM at FAAH [1], on MAGL [2], on FAAH [3] and at MAGL [4] was over 75% each time.

Take `C[C@@H]1C[C@H](N(C)Cc2ccc(Cl)c(N3CC4COCC4C3)c2)CCN1C(=O)n1ccc(NS(C)(=O)=O)n1` (stereo partly drawn) [Example 27, N-(1-((2R,4R)-4-((4-chloro-3-(tetrahydro-1H-furo[3,4-c]pyrrol-5(3H)-yl)benzyl)(methyl)amino)-2-methylpiperidine-1-carbonyl)-1H-pyrazol-3-yl)methanesulfonamide]: the inhibition at 10 µM on MAGL [2] fell in the range of 0 to 25%. The inhibition at 1 µM at FAAH [3] and at MAGL [4] was 0 to 25% each time.

Regarding `CS(=O)(=O)Nc1ccn(C(=O)N2CCC(OCc3ccc(N4CCC(F)CC4)c(Cl)c3)CC2)n1` [Example 30, N-(1-(4-((3-chloro-4-(4-fluoropiperidin-1-yl)benzyl)oxy)piperidine-1-carbonyl)-1H-pyrazol-3-yl)methanesulfonamide], the inhibition at 1 µM on MAGL [2], on FAAH [3] and at MAGL [4] was over 75% throughout.

Consider `C[C@H]1CN(C(=O)n2ccc(NS(C)(=O)=O)n2)CCN1Cc1cnc(C(F)(F)F)c(N2CCC(F)CC2)c1` [Example 33, (S)—N-(1-(4-((5-(4-fluoropiperidin-1-yl)-6-(trifluoromethyl)pyridin-3-yl)methyl)-3-methylpiperazine-1-carbonyl)-1H-pyrazol-3-yl)methanesulfonamide], for which the results for the inhibition at 1 µM on MAGL [2], on FAAH [3] and at MAGL [4] were over 75%, 0 to 25% and over 75%, respectively.

As for `CC(C)C(=O)Nc1ccn(C(=O)N2CCN(Cc3ccc(C(F)(F)F)cc3N3CCCC3)CC2)n1` [Example 161, N-(1-(4-(2-(Pyrrolidin-1-yl)-4-(trifluoromethyl)benzyl)piperazine-1-carbonyl)-1H-pyrazol-3-yl)isobutyramide], the inhibition at 1 µM at FAAH [3] was 0 to 25%; at MAGL [4], over 75%.

`CC(=O)Nc1ccn(C(=O)N2CC3CN(Cc4ccc(Cl)cc4)CC3C2)n1` (stereo not drawn) [Example 170, N-(1-(5-(4-Chlorobenzyl)octahydropyrrolo[3,4-c]pyrrole-2-carbonyl)-1H-pyrazol-3-yl)acetamide]: the inhibition at 1 µM was 50 to 75% at FAAH [3] and over 75% on MAGL [4].

In the case of `CC(=O)Nc1ccn(C(=O)N2CC3CN(Cc4ccc(N5CCOCC5)c(C(F)(F)F)c4)CC3C2)n1` (stereo not drawn) [Example 171, N-(1-(5-(4-Morpholino-3-(trifluoromethyl)benzyl)octahydropyrrolo[3,4-c]pyrrole-2-carbonyl)-1H-pyrazol-3-yl)acetamide], the results for the inhibition at 1 µM on FAAH [3] and at MAGL [4] were 50 to 75% and over 75%, respectively.

Turning to `CC(=O)Nc1ccn(C(=O)N2CC3CN(Cc4ccc(Cl)cc4Cl)CC3C2)n1` (stereo not drawn) [Example 174, N-(1-(5-(2,4-Dichlorobenzyl)octahydropyrrolo[3,4-c]pyrrole-2-carbonyl)-1H-pyrazol-3-yl)acetamide], the inhibition at 1 µM is 50 to 75% at FAAH [3] and over 75% on MAGL [4].
